Reference: the CheMixHub ionic liquid set

Experiment: xn = mol fraction of the nth substance listed

O=C1CCCCCN1 + CCCC[N+](CCCC)(CCCC)CCCC.[Cl-] + O
electrical conductivity [S/m], 101 kPa
Details | x1 = 0.0018, x2 = 0.0018 | x1 = 0.0197, x2 = 0.0197 | x1 = 0.0481, x2 = 0.0481 | x1 = 0.0862, x2 = 0.0862 | x1 = 0.146, x2 = 0.146
293.15 K | – | 0.798 | – | – | 0.593
295.65 K | – | 0.788 | – | – | 0.6211
298.15 K | – | 0.778 | 0.799 | 0.775 | 0.639
300.65 K | – | 0.769 | 0.8 | 0.7743 | 0.6505
303.15 K | – | 0.768 | 0.795 | 0.778 | 0.659
305.65 K | – | 0.767 | 0.788 | 0.775 | 0.667
308.15 K | 0.219 | 0.767 | 0.7825 | 0.7733 | 0.677
310.65 K | 0.219 | 0.763 | 0.779 | 0.768 | 0.686
313.15 K | 0.221 | 0.758 | 0.776 | 0.7623 | 0.6923
315.65 K | 0.222 | 0.753 | 0.77 | 0.757 | 0.695
318.15 K | 0.222 | 0.744 | 0.7621 | 0.7513 | 0.699
320.65 K | 0.223 | 0.735 | 0.7545 | 0.7434 | 0.699
323.15 K | 0.223 | 0.725 | 0.746 | 0.736 | 0.698
325.65 K | 0.224 | 0.716 | 0.737 | 0.727 | 0.697
328.15 K | 0.224 | 0.704 | – | 0.719 | 0.6938
330.65 K | 0.224 | 0.693 | – | 0.7105 | 0.687
333.15 K | 0.225 | 0.681 | – | 0.7023 | 0.6811

O + CCCCCCCCCCCCOS(=O)(=O)[O-].[Na+] + CCCCCCCCCCCCCCCC[N+](C)(C)C.[Br-]
Details | electrical conductivity [S/m]
298.15 K, 101 kPa, frequency 0.001 MHz, x2 = 0, x3 = 0 | 0.000321

CC1COC(=O)O1 (centres undefined) + CCCC[n+]1ccn(C)c1.O=S(=O)([N-]S(=O)(=O)C(F)(F)F)C(F)(F)F
101.3 kPa
Details | viscosity [mPa·s]
293.15 K, x2 = 0.8776 | 51
298.15 K, x2 = 0.1013 | 4.029
298.15 K, x2 = 0.7 | 28.89
303.15 K, x2 = 0.8079 | 29.79
303.15 K, x2 = 0.8776 | 33.75
308.15 K, x2 = 0.1013 | 3.249
308.15 K, x2 = 0.1557 | 4.102
308.15 K, x2 = 0.4128 | 9.65
308.15 K, x2 = 0.5045 | 12.33
313.15 K, x2 = 0.5045 | 10.67
318.15 K, x2 = 0.7 | 15.35
323.15 K, x2 = 0.7 | 13.28
333.15 K, x2 = 0.8776 | 13.61
338.15 K, x2 = 0.3071 | 3.659
348.15 K, x2 = 0 | 1.14
348.15 K, x2 = 0.1557 | 2.025

CCC[N+]1(C)CCCC1.O=S(=O)([N-]S(=O)(=O)C(F)(F)F)C(F)(F)F + CCC[N+](C)(C)C.O=S(=O)([N-]S(=O)(=O)C(F)(F)F)C(F)(F)F
Details | viscosity [mPa·s]
298.15 K, 101.3 kPa, x2 = 0 | 61

CN(CCO)CCO + CCCCCC[n+]1ccn(C)c1.O=S(=O)([N-]S(=O)(=O)C(F)(F)F)C(F)(F)F
101 kPa, x1 = 1
Details | viscosity [mPa·s]
303.15 K | 59.8
313.15 K | 37.9
318.15 K | 29.8

CCCCCCCCn1cc[n+](C)c1.O=S(=O)([N-]S(=O)(=O)C(F)(F)F)C(F)(F)F + c1ccccc1
293 K, 101 kPa
Details | viscosity [mPa·s]
x1 = 0.2 | 7.34
x1 = 0.6 | 46.2

CCC[N+]1(C)CCCC1.O=S(=O)([N-]S(=O)(=O)C(F)(F)F)C(F)(F)F + CCCCCCCCCCCCCC[P+](CCCCCC)(CCCCCC)CCCCCC.O=S(=O)([N-]S(=O)(=O)C(F)(F)F)C(F)(F)F
313.15 K, 101 kPa, x2 = 0.75
Details | electrical conductivity [S/m] | viscosity [mPa·s]
– | 0.0308 | 135

CCCC[n+]1ccn(C)c1.F[B-](F)(F)F + OCC(F)(F)F
101 kPa, x2 = 0
Details | viscosity [mPa·s]
278.15 K | 360
283.15 K | 255
288.15 K | 186
293.15 K | 139
298.15 K | 106
303.15 K | 82.2
308.15 K | 65
313.15 K | 52.2
318.15 K | 42.6
323.15 K | 35.2
328.15 K | 29.5
333.15 K | 25
